How the values were obtained:
S. aureus (209P strain) = experiment: Preliminary testing of antimicrobial properties on agar, S. aureus; assay type: cell-based, Staphylococcus aureus
Source text: (§1) Table S4. Results of preliminary testing the antimicrobial properties of the VVVHINGGKF (V10F), GVVVRLANFG (G10G),
VQGLVHISEI (V10I), QQVNVKILGI (Q10I) peptides against S. aureus, MRSA, B. cereus, and E. coli bacteria cells on agar.

[1] = system: B. cereus (IP-5812 strain); experiment: Preliminary testing of antimicrobial properties on agar, B. cereus; assay type: cell-based, Bacillus cereus
Source text: as §1
(§2) VQGLVHISEI (V10I), QQVNVKILGI (Q10I) peptides against S. aureus, MRSA, B. cereus, and E. coli bacteria cells on agar. […]

E. coli (K12 strain) = experiment: Preliminary testing of antimicrobial properties on agar, E. coli; assay type: cell-based, Escherichia coli
Source text: as §1, §2

MRSA (SA 180-F strain) = experiment: Preliminary testing of antimicrobial properties on agar, MRSA SA 180-F; assay type: cell-based, Methicillin-resistant Staphylococcus aureus
Source text: as §1, §2

MRSA (ATCC 43300 strain) = experiment: Preliminary testing of antimicrobial properties on agar, MRSA ATCC 43300; assay type: cell-based, Methicillin-resistant Staphylococcus aureus
Source text: as §1, §2
MRSA (ATCC 43300 Non-AMP Non-AMP Non-AMP Non-AMP Non-AMP

Measured: antimicrobial properties on agar

GVVVRLANFG [G10G]
Non-AMP: S. aureus (209P strain); peptide 1 µM | S. aureus (209P strain); peptide 10 µM | S. aureus (209P strain); peptide 100 µM | S. aureus (209P strain); peptide 1000 µM | [1]; peptide 1 µM | [1]; peptide 10 µM | [1]; peptide 100 µM | [1]; peptide 1000 µM | [1]; peptide 10000 µM | E. coli (K12 strain); peptide 1 µM | E. coli (K12 strain); peptide 10 µM | E. coli (K12 strain); peptide 100 µM | E. coli (K12 strain); peptide 1000 µM | E. coli (K12 strain); peptide 10000 µM | MRSA (SA 180-F strain); peptide 1 µM | MRSA (SA 180-F strain); peptide 10 µM | MRSA (SA 180-F strain); peptide 100 µM | MRSA (SA 180-F strain); peptide 1000 µM | MRSA (SA 180-F strain); peptide 10000 µM | MRSA (ATCC 43300 strain); peptide 1 µM | MRSA (ATCC 43300 strain); peptide 10 µM | MRSA (ATCC 43300 strain); peptide 100 µM | MRSA (ATCC 43300 strain); peptide 1000 µM | MRSA (ATCC 43300 strain); peptide 10000 µM
AMP: S. aureus (209P strain); peptide 10000 µM
